Experimental data published in patent EP1985624A2, “Single step method of radiofluorination of biologically active compounds or biomolecules” (Bayer Schering Pharma Aktiengesellschaft, priority 2007, dated 2008).
*1 amine or outer side, *2 acyl side, *3 side chain or, on linkers, in order; H or OH if unused. Where a SMILES comes first, the peptide text is derived from it. [ ]: non-standard residue; d: D form. The star is where a group is joined. X3 = CC(C)[C@H](N[*:1])[C@H](O)CC(=O)[*:2]; Benzoyl(3-CN,4-F) = N#Cc1cc(C(=O)*)ccc1F; Benzoyl(3,4-F2) = O=C(c1ccc(F)c(F)c1)*; NMeH = CN[C@@H](Cc1c[nH]cn1)C(=O)O; X1 = CCC(C)C(CCC(=O)[*:2])N[*:1]; β3hI = CC[C@H](C)[C@H](N)CC(=O)O; Tle = CC(C)(C)[C@H](N)C(=O)O; β3hL = CC(C)C[C@H](N)CC(=O)O; Ava = NCCCCC(=O)O; βAla = NCCC(=O)O; Sar = CNCC(=O)O

biological target: T1, human bombesin 2 receptor (GRPR) (Homo sapiens, UniProt P30550); experiment: competitive receptor-binding assay (scintillation proximity assay) with 125I-[Tyr4]-Bombesin; conditions: not given
T1 construct: using GRPR-containing cell membranes (Perkin Elmer); purchased Perkin Elmer
Experimental: In vitro binding affinity and specificity of Bombesin analogs for the human bombesin 2 receptor (GRPR) were assessed via a competitive receptor-binding assay using ^125I-[Tyr^4]-Bombesin (Perkin Elmer; specific activity 81.4 TBq/mmol) as GRPR-specific radioligand. The assay was performed based on the scintillation proximity assay (SPA) technology (Carpenter JW et al., Meth Mol Biol 2002; 190:31-49) using GRPR-containing cell membranes (Perkin Elmer) and wheat germ agglutinin (WGA)-coated PVT beads (Amersham Bioscience).
(§1) Briefly, GRPR-containing membranes and WGA-PVT beads were mixed in assay buffer (50 mM Tris/HCl pH 7.2, 5 mM MgCl2, 1 mM EGTA, Complete protease inhibitor (Roche Diagnostics GmbH) and 0.3% PEI) to give final concentrations of approximately 100 µg/ml protein and 40 mg/ml PVT-SPA beads. The ligand ^125I-[Tyr^4]-Bombesin was diluted to 0.5 nM in assay buffer. The test compounds were dissolved in DMSO to give 1 mM stock solutions Later on, they were diluted in assay buffer to 8 pM - 1.5 µM.
The assay was then performed as follows: First, 10 µl of compound solution to be tested for binding were placed in white 384 well plates (Optiplate-384, Perkin-Elmer). At next, 20 µl GRPR/WGA-PVT bead mixture and 20 µl of the ligand solution were added. After 90 minutes incubation at room temperature, another 50 µl of assay buffer were added, the plate sealed and centrifuged for 10 min at 520xg at room temperature. Signals were measured in a TopCount (Perkin Elmer) for 1 min integration time per well. The IC50 was calculated by nonlinear regression using the GraFit data analysis software (Erithacus Software Ltd.). Furthermore, the KI was calculated based on the IC50 for test compound as well as the KD and the concentration of the ligand ^125I-[Tyr^4]-Bombesin. Experiments were done with quadruple samples.
The Binding affinities measured for all the cold F-19 compounds are listed Table 2.
as §1, with “Lateron,” for “Later on,”

T1 sequence (P30550 whole entry): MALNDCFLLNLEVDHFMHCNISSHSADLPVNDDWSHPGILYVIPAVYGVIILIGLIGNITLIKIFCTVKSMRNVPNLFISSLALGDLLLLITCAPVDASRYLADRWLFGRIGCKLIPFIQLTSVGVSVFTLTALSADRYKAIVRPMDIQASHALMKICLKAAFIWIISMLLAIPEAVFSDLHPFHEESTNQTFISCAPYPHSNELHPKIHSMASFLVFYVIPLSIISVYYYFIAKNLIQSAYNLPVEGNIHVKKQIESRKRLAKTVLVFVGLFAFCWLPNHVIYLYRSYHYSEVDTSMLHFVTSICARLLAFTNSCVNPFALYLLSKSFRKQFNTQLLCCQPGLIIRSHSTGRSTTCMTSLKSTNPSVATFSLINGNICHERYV

First: CCC(C)C(CCC(=O)N[C@@H](CC(C)C)C(N)=O)NC(=O)[C@H](Cc1c[nH]cn1)N(C)C(=O)CNC(=O)[C@@H](NC(=O)[C@H](C)NC(=O)[C@H](Cc1c[nH]c2ccccc12)NC(=O)[C@H](CCC(N)=O)NC(=O)CCCCNC(=O)c1ccc(F)c(F)c1)C(C)C (stereo partly drawn) [IIB-a-50, 3,4-[19]Difluorobenzoyl-Ava-Gln-Trp-Ala-Val-Gly-NMeHis-4-Am,5-MeHpA-Leu-NH2] ({Benzoyl(3,4-F2)-Ava}-QWAVG[NMeH][X1]L-NH2)
Second: CCC(C)C(CCC(=O)N[C@@H](CC(C)C)C(N)=O)NC(=O)[C@H](Cc1c[nH]cn1)NC(=O)CNC(=O)[C@@H](NC(=O)[C@H](C)NC(=O)[C@H](Cc1c[nH]c2ccccc12)NC(=O)[C@H](CCC(N)=O)NC(=O)CCCCNC(=O)c1ccc(F)c(C#N)c1)C(C)C (stereo partly drawn) [IIB-a-17, 4-[19]-Fluoro-3-cyano-benzoyl-Ava-Gln-Trp-Ala-Val-Gly-His-4-Am,S-MeHpA-Leu-NH2] ({Benzoyl(3-CN,4-F)-Ava}-QWAVGH[X1]L-NH2)
The Ki of the first is higher: greater than 25 nM for the first, 1.9 nM for the second.

Going from `CC(C)C[C@H](NC(=O)C[C@@H](O)[C@@H](NC(=O)[C@H](Cc1c[nH]cn1)NC(=O)CN(C)C(=O)[C@@H](NC(=O)[C@H](C)NC(=O)[C@H](Cc1c[nH]c2ccccc12)NC(=O)[C@H](CCC(N)=O)NC(=O)CCCCNC(=O)c1ccc(F)c(F)c1)C(C)C)C(C)C)C(N)=O` [IIB-a-51] ({Benzoyl(3,4-F2)-Ava}-QWAV[Sar]H[X3]L-NH2) to `CC(C)C[C@H](NC(=O)[C@H](Cc1ccccc1)NC(=O)[C@@H](Cc1c[nH]cn1)NC(=O)CCNC(=O)[C@@H](NC(=O)[C@H](C)NC(=O)[C@H](Cc1c[nH]c2ccccc12)NC(=O)[C@H](CCC(N)=O)NC(=O)CCCCNC(=O)c1ccc(F)c(F)c1)C(C)C)C(N)=O` [IIB-a-55] ({Benzoyl(3,4-F2)-Ava}-QWAV[βAla][dH]FL-NH2), the Ki falls from greater than 25 nM to 19 nM.

Work on `CC(C)C[C@H](NC(=O)[C@H](Cc1ccccc1)NC(=O)[C@H](Cc1c[nH]cn1)N(C)C(=O)CCNC(=O)[C@@H](NC(=O)[C@H](C)NC(=O)[C@H](Cc1c[nH]c2ccccc12)NC(=O)[C@H](CCC(N)=O)NC(=O)CCCCNC(=O)c1ccc(F)c(F)c1)C(C)C)C(N)=O` [IIB-a-54] ({Benzoyl(3,4-F2)-Ava}-QWAV[βAla][NMeH]FL-NH2) yielded a Ki of 0.4 nM.

same assay, conditions: GRPR-containing cell membranes, 125I-[Tyr4]-Bombesin, 90 minutes at room temperature; Table 2, B1 = CO; read-out: Ki

First: CC[C@H](C)[C@@H](CC(=O)N[C@@H](CC(C)C)C(N)=O)NC(=O)[C@H](Cc1c[nH]cn1)NC(=O)CCNC(=O)[C@@H](NC(=O)[C@H](C)NC(=O)[C@H](Cc1c[nH]c2ccccc12)NC(=O)[C@H](CCC(N)=O)NC(=O)CCCCNC(=O)c1ccc(F)c(F)c1)C(C)C [IIB-a-57] ({Benzoyl(3,4-F2)-Ava}-QWAV[βAla]H[β3hI]L-NH2)
Second: CC(C)C[C@@H](CC(=O)N[C@@H](CC(C)C)C(N)=O)NC(=O)[C@H](Cc1c[nH]cn1)NC(=O)CCNC(=O)[C@@H](NC(=O)[C@H](C)NC(=O)[C@H](Cc1c[nH]c2ccccc12)NC(=O)[C@H](CCC(N)=O)NC(=O)CCCCNC(=O)c1ccc(F)c(F)c1)C(C)C [IIB-a-56] ({Benzoyl(3,4-F2)-Ava}-QWAV[βAla]H[β3hL]L-NH2)
The Ki of the first is higher: greater than 50 nM for the first, 45 nM for the second. The second binds more tightly here.

`CC(C)C[C@@H](CC(=O)N[C@H](C(N)=O)C(C)(C)C)NC(=O)[C@H](Cc1c[nH]cn1)NC(=O)CCNC(=O)[C@@H](NC(=O)[C@H](C)NC(=O)[C@H](Cc1c[nH]c2ccccc12)NC(=O)[C@H](CCC(N)=O)NC(=O)CCCCNC(=O)c1ccc(F)c(F)c1)C(C)C` [IIB-a-58] ({Benzoyl(3,4-F2)-Ava}-QWAV[βAla]H[β3hL][Tle]-NH2) showed a Ki greater than 50 nM.

tested on: not listed separately; experiment: human serum stability of the F-18 labeled peptide (HPLC purity); format: in vitro ADME; conditions: 37°C for 90 min, purity assessed by HPLC (phosphate buffer and TFA mobile phases)
Experimental: To qualify for pre-clinical and clinical use, it is necessary to establish the stability of the compound in human serum. The compound a 70 µL of human serum containing the F-18 labeled peptide (5.89 MBq/mL) was incubated at 37°C for 90 min. An aliquot was withdrawn at various intervals and the purity assessed by HPLC. The purity was evaluated in under two different conditions. Potassium hydrogen phosphate buffer system was used as a mobile phase to measure the stability of attached F-18 label. Column: C-18, Gradient: A: 10mM K2HPO4 pH:9,04; B: 10mM K2HPO4 pH:9,04/ACN 3/ 7; Flow rate: 2 mL, 5% A to 95% B in 7 min. [formula] [formula] [formula]
Trifluoroacetic acid system was used as a mobile phase to measure the stability of the entire molecule. Column: C-18, Gradient: A: 10% CH3CN: 90% H2O, B:90% CH3CN: 10% H2O containing 0.1 % TFA. [formula] [formula] [formula]

With “4-[18]Fluoro-3-cyano-benzoyl-Arg-Ava-Gln-Trp-Ala-Val-NMeGly-His-Sta-Leu-NH2 [IIA-a-1]” the “stability in human serum” value was “stable in human serum”.
